# Experimental data as given in patent publication EP0745595A1, “3-(3-Aryloxyphenyl)-1-(substituted methyl)-s-triazine-2,4,6-oxo or thiotrione herbicidal agents” (American Cyanamid Company, priority 1995, dated 1996).
# Columns and labels:
# Assay type in all cases: in vivo
# GALIUM APARINE [1] = assay: Preemergence herbicidal evaluation, GALAP (Galium); details: Rate 0.500 kg/ha, rated four to five weeks after treatment
# From the text: (§1) Results of herbicide evaluation are expressed on a rating scale (0-9). The scale is based upon a visual observation of plant stand, vigor, malformation, size, chlorosis and overall plant appearance as compared with a control.
# (§2) The preemergence herbicidal activity of the test compounds of the present invention is exemplified by the following tests in which the seeds of a variety of monocotyledonous and dicotyledonous plants are separately mixed with potting soil and planted on top of approximately one inch of soil in separate pint cups. […] The treated cups are then placed on greenhouse benches, watered and cared for in accordance with conventional greenhouse procedures. From four to five weeks after treatment, the tests are terminated and each cup is examined and rated according to the rating system provided in Example 40.
# (§3) The compounds evaluated are reported by compound number given in Example 40.
# SAGITTARIA PYGMAEA, L. = assay: Preemergence weed control under flooded paddy conditions, SAGPY (Arrowhead (Pygmaea)); details: preemergence, 3-4 weeks after treatment
# Procedure, shortened: (§4)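 Visual 0-9 rating against untreated control, covering stand, vigor, malformation, size and chlorosis, scored three to four weeks post-treatment in a greenhouse. Application was into 1.5-3 cm flood water over silt loam sown at 0.5 cm. The 50/50 v/v aqueous/acetone doses were about 0.5, 0.25, 0.125 and 0.063 kg/ha.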
# [2] = system: ORYZA SATIVA, L. TEBONNET; assay: Rice tolerance to post-transplant applications under flooded paddy conditions, ORYSAT (Rice, Tebonnet); details: post-transplant rice, 3-4 weeks after treatment
# Procedure, shortened: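 Rated on a visual 0–9 scale against untreated plants 3–4 weeks after application, rice (cv. Tebonnet) tolerance was tested by applying compounds (approx. 0.5–0.063 kg/ha, acetone/water 50/50) to flooded soil three days post-transplant, water kept 1.5–3 cm deep.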
# [3] = system: CYPERUS SEROTINUS, ROTTB.; assay: Preemergence weed control under flooded paddy conditions, CYPSE (Flatsedge); details: preemergence, 3-4 weeks after treatment
# Procedure, shortened: as §4
# CASSIA OBTUSIFOLIA, L. = assay: Preemergence herbicidal evaluation, CASOB (Sicklepod); details: Rate 0.500 kg/ha, rated four to five weeks after treatment
# From the text: as §1, §2, §3
# GALIUM APARINE [4] = assay: Postemergence herbicidal evaluation, GALAP (Galium); details: rated four to five weeks after treatment, averaged
# Procedure, shortened: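 In this postemergence greenhouse test, two-week-old Galium aparine seedlings grown in jiffy flats received a 40 psi spray of compound in acetone/water (50/50) with 0.5% TWEEN®20 surfactant. After four to five weeks, stand, vigor, malformation, size, chlorosis and overall appearance were compared with untreated controls on a 0-9 scale, averaging multiple tests.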
# [5] = system: ECHINOCHLOA CRUS-GALLI, (L) BEAU; assay: Postemergence herbicidal evaluation, ECHCG (Barnyardgrass); details: rated four to five weeks after treatment, averaged
# Procedure, shortened: (§5)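 Application to seedlings around two weeks old: test compound in 50/50 acetone/water, 0.5% TWEEN 20, sprayed at 40 psi for roughly 0.125–0.500 kg/ha. Evaluation: 0–9 visual scale after 4–5 weeks, replicates averaged.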
# [6] = system: ECHINOCHLOA ORYZOIDES (ARD.)FRITSCH; assay: Preemergence weed control under flooded paddy conditions, ECHORC (Watergrass (Calif.)); details: 0.500 kg/ha, preemergence, 3-4 weeks after treatment
# Procedure, shortened: as §4
# […], PRESL. = Preemergence weed control under flooded paddy conditions, MOOVA (Monochoria); details: 0.500 kg/ha, preemergence, 3-4 weeks after treatment
# Procedure, shortened: as §4
# CYPERUS IRIA = assay: Preemergence weed control under flooded paddy conditions, CYPIR (Rice Flatsedge); details: 0.500 kg/ha, preemergence, 3-4 weeks after treatment
# Procedure, shortened: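 This preemergence test mimicked flooded paddy conditions: rice flatsedge propagules were sown in the upper 0.5 cm of silt loam in undrained 32 oz. containers (10.5 cm diameter), with water held 1.5 to 3 cm over the soil. After normal greenhouse care, plants were scored 0-9 for stand, vigor, malformation, size, chlorosis and appearance relative to controls.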
# [7] = system: SETARIA VIRIDIS, (L) BEAU; assay: Postemergence herbicidal evaluation, SETVI (Foxtail, Green); details: rated four to five weeks after treatment, averaged
# Procedure, shortened: as §5
Structure (SMILES),GALAP herbicidal rating (GALIUM APARINE [1]),"Herbicidal effect rating, SAGPY (SAGITTARIA PYGMAEA, L.; 0.063 kg/ha)","Herbicidal effect rating, SAGPY (SAGITTARIA PYGMAEA, L.; 0.125 kg/ha)","Herbicidal effect rating, SAGPY (SAGITTARIA PYGMAEA, L.; 0.250 kg/ha)","Herbicidal effect rating, SAGPY (SAGITTARIA PYGMAEA, L.; 0.500 kg/ha)","Herbicidal effect rating, ORYSAT ([2]; 0.063 kg/ha)","Herbicidal effect rating, ORYSAT ([2]; 0.125 kg/ha)","Herbicidal effect rating, ORYSAT ([2]; 0.250 kg/ha)","Herbicidal effect rating, ORYSAT ([2]; 0.500 kg/ha)","Herbicidal effect rating, CYPSE ([3]; 0.063 kg/ha)","Herbicidal effect rating, CYPSE ([3]; 0.125 kg/ha)","Herbicidal effect rating, CYPSE ([3]; 0.250 kg/ha)","Herbicidal effect rating, CYPSE ([3]; 0.500 kg/ha)","CASOB herbicidal rating (CASSIA OBTUSIFOLIA, L.)",further results
"COC(=O)Cn1c(=O)n(C)c(=O)n(-c2cc(Oc3cccc(Cl)c3Cl)ccc2[N+](=O)[O-])c1=O [Compound 22, Methyl 3-[5-(2,3-dichlorophenoxy)-2-nitrophenyl]tetrahydro-5-methyl-2,4,6-trioxo-s-triazine-1(2H)-acetate]",0.0,0.0,0.0,0.0,0.0,0.0,0.0,0.0,2.0,0.0,0.0,0.0,0.0,3.0,
"COC(=O)Cn1c(=O)n(C)c(=O)n(-c2cc(Oc3ccc([N+](=O)[O-])cc3F)ccc2[N+](=O)[O-])c1=O [Compound 24, Methyl 3-[5-(2-fluoro-4-nitrophenoxy)-2-nitrophenyl]tetrahydro-5-methyl-2,4,6-trioxo-s-triazine-1(2H)-acetate]",0.0,,,,0.0,,,,0.0,,,,0.0,0.0,"GALAP, herbicide rating (0-9) (GALIUM APARINE [4]; Rate 0.125 kg/ha): 2.0; GALAP, herbicide rating (0-9) (GALIUM APARINE [4]; Rate 0.250 kg/ha): 2.0; GALAP, herbicide rating (0-9) (GALIUM APARINE [4]; Rate 0.500 kg/ha): 2.0; ECHCG, herbicide rating (0-9) ([5]; Rate 0.125 kg/ha): 0.0; ECHCG, herbicide rating (0-9) ([5]; Rate 0.250 kg/ha): 0.0; ECHCG, herbicide rating (0-9) ([5]; Rate 0.500 kg/ha): 0.0; Herbicidal effect rating, ECHORC [6]: 0.0; Herbicidal effect rating, MOOVA ([…], PRESL.): 0.0; Herbicidal effect rating, CYPIR (CYPERUS IRIA): 0.0; SETVI, herbicide rating (0-9) ([7]; Rate 0.125 kg/ha): 0.0; SETVI, herbicide rating (0-9) ([7]; Rate 0.250 kg/ha): 0.0; SETVI, herbicide rating (0-9) ([7]; Rate 0.500 kg/ha): 0.0"
"COC(=O)Cn1c(=O)n(C)c(=O)n(-c2cc(Oc3ccc(F)c(F)c3F)ccc2[N+](=O)[O-])c1=O [Compound 27, Methyl tetrahydro-3-methyl-5-[2-nitro-5-(2,3,4-trifluorophenoxy)phenyl]-2,4,6-trioxo-s-triazine-1(2H)-acetate]",8.0,0.0,0.0,0.0,0.0,0.0,1.0,2.0,1.5,0.0,0.0,0.0,0.0,0.0,
